Columns and labels:
[1] = cited from earlier work
[2] = Dissolution test of loperamide samples, USP 24 paddle method, HPLC; type: physicochemical; conditions: 37 °C, paddle 100 rpm
Description: Four different samples containing loperamide (commercially available from Janssen Pharmaceutica, Beerse, Belgium) were prepared and their dissolution profiles were measured. 1 g/l of loperamide and 10 g/l of Aerosil 380 (a silicate commercially available from Degussa, Dusseldorf, Germany) were mixed with bi-distilled water in a mortar. An untreated sample was prepared by fast solidification of part of this suspension in a pre-cooled ball that was kept in liquid nitrogen followed by freeze-drying. […]
Dissolution experiments were performed in a SR8 PLUS Hanson dissolution test station (commercially available from Chatsworth, United States) while using the USP 24 method (paddle method, 100 rpm). […] The corresponding concentrations were determined from the calibration curve with HPLC.
The HPLC system used for this determination consisted of LiChroGraph® L-7100 HPLC pump, an auto-sampler model L-7200 equipped with a 100 μl loop, a UV detector model L-7400 set at 220 nm, and an Interface D-7000, all from commercially available from Merck-Hitachi (Darmstadt, Germany). UV signals were monitored and peaks were integrated using the D-7000 HSM software. […]

CCCCNc1ccc(C(=O)OCCN(C)C)cc1 [tetracaine]
average particle diameter ([1]; aqueous nanosuspensions, U.S. Pat. No. 5,858,410): 91 nm

CN(C)C(=O)C(CCN1CCC(O)(c2ccc(Cl)cc2)CC1)(c1ccccc1)c1ccccc1 [loperamide]
dissolution rate versus corresponding untreated sample ([2]; magnetic treatment in the presence of a silicate (Aerosil)): significantly increased
dissolution rate versus corresponding untreated sample ([2]; magnetic treatment in the presence of a surfactant (Tween 80)): significantly increased

C#C[C@]1(O)CC[C@H]2[C@@H]3CCC4=Cc5oncc5C[C@]4(C)[C@H]3CC[C@@]21C [danazol]
size to which 10% of the particles are reduced ([1]; dispersion refined by electric field, U.S. Pat. No. 5,503,723): 180 nm

Reference: US7666307B2, “Particle size reduction of bioactive compounds” (K.U. Leuven Research & Development, priority 2003, dated 2010)
